From US6737383B1, “Herbicidal oxadiazolidines” (priority 1999, dated 2004)

Experiments:
Alexandergrass = test: Test D Alexandergrass; type: in vivo, Brachiaria plantaginea; settings: Postemergence, 0 to 100 scale
bermuda-grass = test: Test D bermudagrass; type: in vivo, Cynodon dactylon; settings: Postemergence, 0 to 100 scale
common pursiane = test: Test D common purslane; type: in vivo, Portulaca oleracea; settings: Postemergence, 0 to 100 scale
common groundsel = test: Test D common groundsel; type: in vivo, Senecio vulgaris; settings: Postemergence, 0 to 100 scale
goosegrass = test: Test D goosegrass; type: in vivo, Eleusine indica; settings: Postemergence, 0 to 100 scale
sandbur = test: Test D sandbur; type: in vivo, Cenchrus echinatus; settings: Postemergence, 0 to 100 scale
Spanishneedles = test: Test D Spanishneedles; type: in vivo, Bidens bipinnata; settings: Postemergence, 0 to 100 scale
Green foxtail [1] = test: Test D green foxtail; type: in vivo; settings: Postemergence, 0 to 100 scale, 0 no injury, 100 complete control
Green foxtail [2] = test: Test D green foxtail; type: in vivo; settings: Postemergence, 0 to 100 scale, 0 no injury, 100 complete control; remark: listed apart in the source
Green foxtail [3] = test: Test D green foxtail; type: in vivo; settings: Postemergence, 0 to 100 scale, 0 no injury, 100 complete control; remark: listed apart in the source
[4] = Rate 16 g/ha, 0 no injury, 100 complete control
[5] = Rate 32 g/ha, 0 no injury, 100 complete control
[6] = Rate 64 g/ha, 0 no injury, 100 complete control
[7] = Rate 125 g/ha, 0 no injury, 100 complete control

SMILES	Plant response rating, Alexandergrass (Alexandergrass; [4])	Plant response rating, Alexandergrass (Alexandergrass; [5])	Plant response rating, Alexandergrass (Alexandergrass; [6])	Plant response rating, Alexandergrass (Alexandergrass; [7])	Plant response rating, Alexandergrass (Alexandergrass; Rate 250 g/ha)	Plant response rating, Bermudagrass (bermuda-grass; [4])	Plant response rating, Bermudagrass (bermuda-grass; [5])	Plant response rating, Bermudagrass (bermuda-grass; [6])	Plant response rating, Bermudagrass (bermuda-grass; [7])	Plant response rating, Bermudagrass (bermuda-grass; Rate 250 g/ha)	Plant response rating, C. purslane (common pursiane; [4])	Plant response rating, C. purslane (common pursiane; [5])	Plant response rating, C. purslane (common pursiane; [6])	Plant response rating, C. purslane (common pursiane; [7])	Plant response rating, C. purslane (common pursiane; Rate 250 g/ha)	Plant response rating, Com. groundsel (common groundsel; [7])	Plant response rating, Com. groundsel (common groundsel; Rate 250 g/ha)	Plant response rating, Goosegrass (goosegrass; [4])	Plant response rating, Goosegrass (goosegrass; [5])	Plant response rating, Goosegrass (goosegrass; [6])	other results
CC(C)N(C(=O)n1oc(=O)n(C2CCC2)c1=O)c1ccccc1 [Compound 348]	0	0	70	100	100	0	20	100	100	100	0	0	0	0	0	100	100	50	90	100	Plant response rating, Com. groundsel (common groundsel; [4]): 30; Plant response rating, Com. groundsel (common groundsel; [6]): 50; Plant response rating, Goosegrass (goosegrass; [7]): 100; Plant response rating, Goosegrass (goosegrass; Rate 250 g/ha): 100; Plant response rating, Sandbur (sandbur; [4]): 0; Plant response rating, Sandbur (sandbur; [5]): 0; Sandbur plant response rating (sandbur; [6]): 20; Sandbur plant response rating (sandbur; [7]): 60; Plant response rating, Sandbur (sandbur; Rate 250 g/ha): 100; Plant response rating, Spanishneedles (Spanishneedles; [4]): 0; Plant response rating, Spanishneedles (Spanishneedles; [5]): 0; Spanishneedles plant response rating (Spanishneedles; [6]): 0; Spanishneedles plant response rating (Spanishneedles; [7]): 0; Plant response rating, Spanishneedles (Spanishneedles; Rate 250 g/ha): 0; Plant response rating, Green foxtail (Green foxtail [1]; Rate 16 g/ha): 0; Plant response rating, Green foxtail (Green foxtail [1]; Rate 32 g/ha): 20; Green foxtail plant response rating (Green foxtail [2]; Rate 64 g/ha): 100; Green foxtail plant response rating (Green foxtail [2]; Rate 125 g/ha): 100; Plant response rating, Green foxtail (Green foxtail [3]; Rate 16 g/ha): 0; Plant response rating, Green foxtail (Green foxtail [3]; Rate 32 g/ha): 20
CC(C)N(C(=O)n1oc(=O)n(C2CCC2)c1=O)c1ccc(Cl)cc1 [Compound 349]	0	0	40	70	90	0	40	70	100	100	0	0	0	0	0	20	50	0	20	100	Plant response rating, Goosegrass (goosegrass; [7]): 100; Plant response rating, Goosegrass (goosegrass; Rate 250 g/ha): 90; Plant response rating, Sandbur (sandbur; [4]): 0; Plant response rating, Sandbur (sandbur; [5]): 0; Sandbur plant response rating (sandbur; [6]): 0; Sandbur plant response rating (sandbur; [7]): 20; Plant response rating, Sandbur (sandbur; Rate 250 g/ha): 80; Plant response rating, Spanishneedles (Spanishneedles; [4]): 0; Plant response rating, Spanishneedles (Spanishneedles; [5]): 0; Spanishneedles plant response rating (Spanishneedles; [6]): 0; Spanishneedles plant response rating (Spanishneedles; [7]): 0; Plant response rating, Spanishneedles (Spanishneedles; Rate 250 g/ha): 0; Plant response rating, Green foxtail (Green foxtail [1]; Rate 16 g/ha): 0; Plant response rating, Green foxtail (Green foxtail [1]; Rate 32 g/ha): 0; Green foxtail plant response rating (Green foxtail [2]; Rate 64 g/ha): 10; Green foxtail plant response rating (Green foxtail [2]; Rate 125 g/ha): 80; Plant response rating, Green foxtail (Green foxtail [3]; Rate 16 g/ha): 0; Plant response rating, Green foxtail (Green foxtail [3]; Rate 32 g/ha): 0
